Results from article PMC4258349 (International Journal of Medicinal Chemistry, 2014).
Converted amounts (≈) assume the structure as drawn. Read-outs that look alike come from different tables or passages of the source.

What was measured:
Staphylococcus aureus [1] = assay: microbe, parasite or virus in culture; format: cell-based; details: read-out: Inhibition zone diameter
Salmonella typhi [2] = assay: Minimum inhibitory concentration (dilutions, plot of IZD^2 against log concentration); format: cell-based; details: Salmonella enterica, read-out: Minimum inhibitory concentration (MIC)
Pseudomonas aeruginosa [3] = assay: microbe, parasite or virus in culture; format: cell-based; details: read-out: Minimum inhibitory concentration (MIC)
Staphylococcus aureus [4] = assay: microbe, parasite or virus in culture; format: cell-based; details: read-out: Minimum inhibitory concentration (MIC)
[5] = Relative acid stability (spectrophotometric absorbance); format: physicochemical; details: 0.1 mg/mL solution, at λ-max
Escherichia coli [6] = assay: microbe, parasite or virus in culture; format: cell-based; details: read-out: Minimum inhibitory concentration (MIC)
Shigella spp. [7] = assay: microbe, parasite or virus in culture; format: cell-based; details: read-out: Minimum inhibitory concentration (MIC)
Bacillus subtilis [8] = assay: microbe, parasite or virus in culture; format: cell-based; details: read-out: Minimum inhibitory concentration (MIC)
Aspergillus niger [9] = assay: Agar well diffusion, inhibition zone diameter; format: cell-based; details: 48 h, read-out: Inhibition zone diameter
Pseudomonas aeruginosa [10] = assay: microbe, parasite or virus in culture; format: cell-based; details: read-out: Inhibition zone diameter
Escherichia coli [11] = assay: microbe, parasite or virus in culture; format: cell-based; details: read-out: Inhibition zone diameter
[12] = Relative thermal stability (spectrophotometric absorbance); format: physicochemical; details: 0.1 mg/mL solution, 24 hours, at λ-max
Procedure: (§1) The relative thermal and acid stabilities of the complexes were determined spectrometrically. Dilute solutions (0.1 mg/mL) were prepared, their absorption spectra were generated, and the λ-max in each case was noted. The solution of each complex was divided into seven equal portions and the temperature regulated to 20°C, 30°C, 40°C, 50°C, 60°C, 70°C, and 80°C, respectively, for a period of 24 hours. The absorbance in each case was then measured. Similarly, the same concentration of these solutions was prepared at the pH range of 1–6 and the absorbance was measured. These changes in absorbance with temperature and pH, assuming that Beer-Lambert's law is obeyed, are a measure of the stability of the complexes.

Aspergillus niger [13] = assay: microbe, parasite or virus in culture; format: cell-based; details: read-out: Minimum inhibitory concentration (MIC)
Bacillus subtilis [14] = assay: microbe, parasite or virus in culture; format: cell-based; details: read-out: Inhibition zone diameter
Salmonella typhi [15] = assay: Agar well diffusion, inhibition zone diameter; format: cell-based; details: Salmonella enterica, 24 h, read-out: Inhibition zone diameter
Shigella spp. [16] = assay: microbe, parasite or virus in culture; format: cell-based; details: 24 h, read-out: Inhibition zone diameter
[17] = Relative acid stability (spectrophotometric absorbance); format: physicochemical; details: 0.1 mg/mL solution, at λ-max; remark: listed apart in the source
Procedure: as §1
The changes in absorbance with pH are a measure of the acid stability of the compounds.

[18] = Procedure: Saturated solution (10 mL) of each of the complexes and ligands at ambient temperature (28°C) was evaporated to dryness in an evaporating dish. The mass of the solid left in each case was determined. The solubilities were calculated using the relation: (1) S=mass/volume×1000. The solubilities of the complexes were compared with those of the ligands.
The solubilities were determined at 28°C.

| SMILES | MIC (Salmonella typhi [2]) | Absorbance at pH 7 [5] | MIC (Shigella spp. [7]) | zone of inhibition at 5000 µg/mL (Aspergillus niger [9]) | Absorbance at 20°C [12] | Absorbance at 30°C [12] | Absorbance at 40°C [12] | Absorbance at 50°C [12] | Absorbance at 60°C [12] | Absorbance at 70°C [12] | Absorbance at 80°C [12] | zone of inhibition at 5000 µg/mL (Salmonella typhi [15]) | zone of inhibition at 5000 µg/mL (Shigella spp. [16]) | Absorbance at pH 1 [17] | Absorbance at pH 2 [17] | Absorbance at pH 3 [17] | Absorbance at pH 4 [17] | Absorbance at pH 5 [17] | Absorbance at pH 6 [17] | also measured |
| --- | --- | --- | --- | --- | --- | --- | --- | --- | --- | --- | --- | --- | --- | --- | --- | --- | --- | --- | --- | --- |
| CC1(C)S[C@@H]2[C@H](NC(=O)[C@H](N)c3ccc(O)cc3)C(=O)N2[C@H]1C(=O)O [Amoxicillin] | 11 µg/mL (≈ 30.1 µM) | 0.664 | 11 µg/mL (≈ 30.1 µM) | 35 mm | 0.661 | 0.664 | 0.643 | 0.428 | 0.369 | 0.312 | 0.126 | 35.5 mm | 30 mm | 0.387 | 0.404 | 0.499 | 0.511 | 0.603 | 0.620 | zone of inhibition at 5000 µg/mL (Staphylococcus aureus [1]; 24 h): 30 mm; MIC (Pseudomonas aeruginosa [3]): 14 µg/mL (≈ 38.3 µM); MIC (Staphylococcus aureus [4]): 12.5 µg/mL (≈ 34.2 µM); MIC (Escherichia coli [6]): 12.5 µg/mL (≈ 34.2 µM); MIC (Bacillus subtilis [8]): 12.5 µg/mL (≈ 34.2 µM); zone of inhibition at 5000 µg/mL (Pseudomonas aeruginosa [10]; 24 h): 28 mm; zone of inhibition at 5000 µg/mL (Escherichia coli [11]; 24 h): 33 mm; MIC (Aspergillus niger [13]): 15 µg/mL (≈ 41 µM); zone of inhibition at 5000 µg/mL (Bacillus subtilis [14]; 24 h): 30 mm |
| Cc1onc(-c2ccccc2Cl)c1C(=O)N[C@@H]1C(=O)N2[C@@H]1SC(C)(C)[C@@H]2C(=O)O [Cloxacillin] | 14.5 µg/mL (≈ 33.3 µM) | 0.722 | 12.5 µg/mL (≈ 28.7 µM) | 30 mm | 0.721 | 0.727 | 0.683 | 0.455 | 0.337 | 0.190 | 0.184 | 27 mm | 30 mm | 0.437 | 0.449 | 0.550 | 0.554 | 0.696 | 0.704 | zone of inhibition at 5000 µg/mL (Staphylococcus aureus [1]; S. aureus clinical isolate, 5 mg/mL, 32°C 24 hours): 31.5 mm; MIC (Pseudomonas aeruginosa [3]; P. aeruginosa clinical isolate): 22 µg/mL (≈ 50.5 µM); MIC (Staphylococcus aureus [4]; S. aureus clinical isolate): 12.5 µg/mL (≈ 28.7 µM); MIC (Escherichia coli [6]; E. coli clinical isolate): 14.5 µg/mL (≈ 33.3 µM); Solubility [18]: Negligible; MIC (Bacillus subtilis [8]; B. subtilis clinical isolate): 12.5 µg/mL (≈ 28.7 µM); zone of inhibition at 5000 µg/mL (Pseudomonas aeruginosa [10]; P. aeruginosa clinical isolate, 5 mg/mL, 32°C 24 hours): 20 mm; zone of inhibition at 5000 µg/mL (Escherichia coli [11]; E. coli clinical isolate, 5 mg/mL, 32°C 24 hours): 28 mm; MIC (Aspergillus niger [13]; A. niger clinical isolate): 14.5 µg/mL (≈ 33.3 µM); zone of inhibition at 5000 µg/mL (Bacillus subtilis [14]; B. subtilis clinical isolate, 5 mg/mL, 32°C 24 hours): 32 mm |
